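Test compounds were applied to cells in 96-well plates for 48 hours at 5 doses. At the GI50, growth is halved. TGI: concentration producing complete growth inhibition.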
Experiments:
Test in all cases: growth of human tumour cells (NCI), 48 h
786-0 renal = test system: 786-0 renal
ACHN renal = test system: ACHN renal
IGROV1 ovarian = test system: IGROV1 ovarian
MCF7 breast = test system: MCF7 breast
MDA-MB-231 breast = test system: MDA-MB-231 breast
OVCAR-4 ovarian = test system: OVCAR-4 ovarian
OVCAR-8 ovarian = test system: OVCAR-8 ovarian
SK-OV-3 ovarian = test system: SK-OV-3 ovarian
SNB-75 CNS = test system: SNB-75 CNS
U251 CNS = test system: U251 CNS

For `CC(C)[C@H](CO)Nc1nc(Nc2ccc(C(=O)NCCNS(=O)(=O)c3cccc4c(N(C)C)cccc34)c(Cl)c2)c2ncn(C(C)C)c2n1`, the GI50 (786-0 renal) was 3.15 µM, the TGI (786-0 renal) was over 100 µM and the GI50 (ACHN renal) was 5.74 µM. For the same compound, the TGI (ACHN renal) was over 100 µM, the GI50 (IGROV1 ovarian) was 2.62 µM and the TGI (IGROV1 ovarian) was over 25.1 µM. The GI50 (MCF7 breast) was 0.987 µM, the TGI (MCF7 breast) was over 83 µM and the GI50 (MDA-MB-231 breast) was 1.58 µM. The TGI (MDA-MB-231 breast) was 9.16 µM, the GI50 (OVCAR-4 ovarian) was 7.71 µM and the TGI (OVCAR-4 ovarian) was over 100 µM. For the same compound, the GI50 (OVCAR-8 ovarian) was 3.18 µM, the TGI (OVCAR-8 ovarian) was over 100 µM and the GI50 (SK-OV-3 ovarian) was over 100 µM. The TGI (SK-OV-3 ovarian) was over 100 µM, the GI50 (SNB-75 CNS) was 1.75 µM and the TGI (SNB-75 CNS) was over 100 µM. The GI50 (U251 CNS) was 2.72 µM and the TGI (U251 CNS) was over 100 µM.
In the case of `NC(N)=N/N=C\c1cccc(OCc2ccccc2)c1`, the GI50 (786-0 renal) is reported as 3.54 µM, the TGI (786-0 renal) is reported as 12.6 µM and the GI50 (ACHN renal) is reported as 4.29 µM. It also gave a TGI (ACHN renal) of 18.5 µM, a GI50 (IGROV1 ovarian) of 6.07 µM and a TGI (IGROV1 ovarian) of 23.8 µM. It also gave a GI50 (MCF7 breast) of 1.77 µM, a TGI (MCF7 breast) of 3.75 µM and a GI50 (MDA-MB-231 breast) of 2.37 µM. The TGI (MDA-MB-231 breast) was 6.11 µM, the GI50 (OVCAR-4 ovarian) was 5.93 µM and the TGI (OVCAR-4 ovarian) was 27 µM. The GI50 (OVCAR-8 ovarian) was 6.58 µM, the TGI (OVCAR-8 ovarian) was 38.8 µM and the GI50 (SK-OV-3 ovarian) was 10.5 µM. The TGI (SK-OV-3 ovarian) was 22.3 µM, the GI50 (SNB-75 CNS) was 7.03 µM and the TGI (SNB-75 CNS) was 23.4 µM. It also gave a GI50 (U251 CNS) of 1.87 µM and a TGI (U251 CNS) of 4.12 µM.
Work on `O=C(Nc1cc(Cl)cc(Cl)c1)c1ccc(NC2=C(Cl)C(=O)N(Cc3ccc(Cl)cc3Cl)C2=O)cc1` yielded a GI50 (786-0 renal) of 3.41 µM, a TGI (786-0 renal) of 35.1 µM and a GI50 (ACHN renal) of 19 µM. It also gave a TGI (ACHN renal) of 48.9 µM, a GI50 (IGROV1 ovarian) of 2.15 µM and a TGI (IGROV1 ovarian) of 7.17 µM. It also gave a GI50 (MCF7 breast) of 3.18 µM, a TGI (MCF7 breast) of 12.9 µM and a GI50 (MDA-MB-231 breast) of 19.6 µM. The TGI (MDA-MB-231 breast) was 41.8 µM, the GI50 (OVCAR-4 ovarian) was 21.8 µM and the TGI (OVCAR-4 ovarian) was over 100 µM. It also gave a GI50 (OVCAR-8 ovarian) of 21.6 µM, a TGI (OVCAR-8 ovarian) of 87.2 µM and a GI50 (SK-OV-3 ovarian) of 55.3 µM. It also gave a TGI (SK-OV-3 ovarian) of over 100 µM, a GI50 (SNB-75 CNS) of 68 µM and a TGI (SNB-75 CNS) of over 100 µM. It also gave a GI50 (U251 CNS) of 16.8 µM and a TGI (U251 CNS) of 51.6 µM.
In the case of `CCOC(=O)N1CCc2cc(OC)c(OC)c3c2c1cc1cc(OC)c(OC)cc13`, the TGI (786-0 renal) is reported as over 100 µM, the TGI (ACHN renal) is reported as over 95 µM and the TGI (IGROV1 ovarian) is reported as over 100 µM. For the same compound, the TGI (MCF7 breast) was 32.8 µM, the TGI (MDA-MB-231 breast) was over 100 µM and the TGI (OVCAR-4 ovarian) was over 95.3 µM. For the same compound, the TGI (OVCAR-8 ovarian) was over 100 µM, the TGI (SK-OV-3 ovarian) was over 51.1 µM and the TGI (SNB-75 CNS) was 8.4 µM. It also gave a TGI (U251 CNS) of 67.1 µM.
With `COc1ccc(-n2nnnc2-c2c[nH]c3c(F)cc(F)cc23)cc1` the GI50 (786-0 renal) was 31.5 µM, the TGI (786-0 renal) was over 100 µM and the GI50 (ACHN renal) was over 100 µM. The TGI (ACHN renal) was over 100 µM, the GI50 (IGROV1 ovarian) was over 100 µM and the TGI (IGROV1 ovarian) was over 100 µM. The GI50 (MCF7 breast) was over 100 µM, the TGI (MCF7 breast) was over 100 µM and the GI50 (MDA-MB-231 breast) was 27.1 µM. The TGI (MDA-MB-231 breast) was over 100 µM, the GI50 (OVCAR-4 ovarian) was 55 µM and the TGI (OVCAR-4 ovarian) was over 100 µM. It also gave a GI50 (OVCAR-8 ovarian) of 39.6 µM, a TGI (OVCAR-8 ovarian) of over 100 µM and a GI50 (SK-OV-3 ovarian) of 34.7 µM. It also gave a TGI (SK-OV-3 ovarian) of over 100 µM, a GI50 (SNB-75 CNS) of 24.3 µM and a TGI (SNB-75 CNS) of 76.9 µM. The GI50 (U251 CNS) was 32.2 µM and the TGI (U251 CNS) was over 100 µM.
Compound `COC(=O)c1c2c(c(C)[n+]([O-])c1C)C(=O)C=C(NCc1ccc(F)c(Cl)c1)C2=O` has a GI50 (786-0 renal) of 1.13 µM, a TGI (786-0 renal) of 3.6 µM and a GI50 (ACHN renal) of 0.126 µM. For the same compound, the TGI (ACHN renal) was 1.81 µM, the GI50 (IGROV1 ovarian) was 0.421 µM and the TGI (IGROV1 ovarian) was 1.91 µM. It also gave a GI50 (MCF7 breast) of 0.169 µM, a TGI (MCF7 breast) of 0.892 µM and a GI50 (MDA-MB-231 breast) of 0.269 µM. The TGI (MDA-MB-231 breast) was 3.42 µM, the GI50 (OVCAR-4 ovarian) was 0.151 µM and the TGI (OVCAR-4 ovarian) was 0.603 µM. The GI50 (OVCAR-8 ovarian) was 0.155 µM, the TGI (OVCAR-8 ovarian) was 1.14 µM and the GI50 (SK-OV-3 ovarian) was 1.51 µM. It also gave a TGI (SK-OV-3 ovarian) of 3.38 µM, a GI50 (SNB-75 CNS) of 1.69 µM and a TGI (SNB-75 CNS) of 3.09 µM. It also gave a GI50 (U251 CNS) of 0.291 µM and a TGI (U251 CNS) of 1.44 µM.
Work on `COc1ccc(/C=C/C(=O)c2ccc(SC)cc2)cc1OC` yielded a GI50 (786-0 renal) of 12.5 µM, a TGI (786-0 renal) of 26.6 µM and a GI50 (ACHN renal) of 11.7 µM. The TGI (ACHN renal) was 27.6 µM, the GI50 (IGROV1 ovarian) was 4.73 µM and the TGI (IGROV1 ovarian) was 25.2 µM. The GI50 (MCF7 breast) was over 100 µM, the TGI (MCF7 breast) was over 100 µM and the GI50 (MDA-MB-231 breast) was 9.05 µM. For the same compound, the TGI (MDA-MB-231 breast) was 33.7 µM, the GI50 (OVCAR-4 ovarian) was 40.5 µM and the TGI (OVCAR-4 ovarian) was over 100 µM. For the same compound, the GI50 (OVCAR-8 ovarian) was 16.5 µM, the TGI (OVCAR-8 ovarian) was 44 µM and the GI50 (SK-OV-3 ovarian) was 34.1 µM. It also gave a TGI (SK-OV-3 ovarian) of over 100 µM, a GI50 (SNB-75 CNS) of 17 µM and a TGI (SNB-75 CNS) of 37.2 µM. For the same compound, the GI50 (U251 CNS) was 3.53 µM and the TGI (U251 CNS) was 13.8 µM.
`N[C@@H]1CCCC[C@H]1N.O=C([O-])C(=O)[O-].[Pt+4]` showed a GI50 (786-0 renal) of 0.752 µM, a TGI (786-0 renal) of 42.9 µM and a GI50 (ACHN renal) of 2.15 µM. The TGI (ACHN renal) was 45.3 µM, the GI50 (IGROV1 ovarian) was 1.85 µM and the TGI (IGROV1 ovarian) was 35.9 µM. For the same compound, the GI50 (MCF7 breast) was 0.224 µM, the TGI (MCF7 breast) was 6.63 µM and the GI50 (MDA-MB-231 breast) was over 100 µM. The TGI (MDA-MB-231 breast) was over 100 µM, the GI50 (OVCAR-4 ovarian) was 4.09 µM and the TGI (OVCAR-4 ovarian) was 83.8 µM. The GI50 (OVCAR-8 ovarian) was 6 µM, the TGI (OVCAR-8 ovarian) was over 100 µM and the GI50 (SK-OV-3 ovarian) was over 66.2 µM. For the same compound, the TGI (SK-OV-3 ovarian) was over 100 µM, the GI50 (SNB-75 CNS) was 18.5 µM and the TGI (SNB-75 CNS) was over 100 µM. The GI50 (U251 CNS) was 1.83 µM and the TGI (U251 CNS) was 27.1 µM.
In the case of `COc1c(OC)c(OC)c2c(c1OC)c(=O)c1ccccc1n2C`, the TGI (786-0 renal) is reported as over 100 µM, the TGI (ACHN renal) is reported as over 100 µM and the TGI (IGROV1 ovarian) is reported as over 100 µM. It also gave a TGI (MCF7 breast) of over 100 µM, a TGI (MDA-MB-231 breast) of over 100 µM and a TGI (OVCAR-4 ovarian) of over 100 µM. The TGI (OVCAR-8 ovarian) was over 100 µM, the TGI (SK-OV-3 ovarian) was over 100 µM and the TGI (SNB-75 CNS) was over 100 µM. For the same compound, the TGI (U251 CNS) was over 100 µM.
For `Ic1ccccc1-c1ccccc1`, the GI50 (786-0 renal) was over 100 µM, the TGI (786-0 renal) was over 100 µM and the GI50 (ACHN renal) was over 100 µM. For the same compound, the TGI (ACHN renal) was over 100 µM, the GI50 (IGROV1 ovarian) was over 100 µM and the TGI (IGROV1 ovarian) was over 100 µM. The GI50 (MCF7 breast) was over 100 µM, the TGI (MCF7 breast) was over 100 µM and the GI50 (MDA-MB-231 breast) was over 100 µM. It also gave a TGI (MDA-MB-231 breast) of over 100 µM, a GI50 (OVCAR-4 ovarian) of over 100 µM and a TGI (OVCAR-4 ovarian) of over 100 µM. For the same compound, the GI50 (OVCAR-8 ovarian) was over 100 µM, the TGI (OVCAR-8 ovarian) was over 100 µM and the GI50 (SK-OV-3 ovarian) was over 100 µM. For the same compound, the TGI (SK-OV-3 ovarian) was over 100 µM, the GI50 (SNB-75 CNS) was over 100 µM and the TGI (SNB-75 CNS) was over 100 µM. The GI50 (U251 CNS) was over 100 µM and the TGI (U251 CNS) was over 100 µM.

Source: PubChem BioAssay (NCI)
